Measured values as given in ChEMBL document CHEMBL2396549, “The discovery of BMS-457, a potent and selective CCR1 antagonist” (Bioorg Med Chem Lett, 2013).
Calls of active or inactive are those of the source. The rule behind the calls is not given here.

What was measured:
[1] = biological target: T1, C-C chemokine receptor type 1 (Homo sapiens, UniProt P32246); experiment: Binding affinity to human CCR1
T1 sequence (P32246 whole entry): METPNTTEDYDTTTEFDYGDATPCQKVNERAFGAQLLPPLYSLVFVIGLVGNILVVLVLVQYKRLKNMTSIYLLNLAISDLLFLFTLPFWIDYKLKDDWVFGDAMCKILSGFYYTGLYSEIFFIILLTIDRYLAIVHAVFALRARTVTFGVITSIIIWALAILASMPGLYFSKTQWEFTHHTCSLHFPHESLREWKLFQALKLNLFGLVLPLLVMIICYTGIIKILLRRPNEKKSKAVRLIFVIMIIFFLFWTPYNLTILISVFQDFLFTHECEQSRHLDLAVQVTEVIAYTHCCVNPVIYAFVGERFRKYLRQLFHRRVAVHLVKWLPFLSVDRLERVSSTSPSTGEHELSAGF

[2] = (§1) Inhibition of sodium channel (unknown origin); set-up: species or system Homo sapiens
[3] = biological target: T2, Nuclear receptor subfamily 1 group I member 2 (Homo sapiens, UniProt O75469); experiment: Induction of PXR (unknown origin)
T2 sequence (O75469 whole entry): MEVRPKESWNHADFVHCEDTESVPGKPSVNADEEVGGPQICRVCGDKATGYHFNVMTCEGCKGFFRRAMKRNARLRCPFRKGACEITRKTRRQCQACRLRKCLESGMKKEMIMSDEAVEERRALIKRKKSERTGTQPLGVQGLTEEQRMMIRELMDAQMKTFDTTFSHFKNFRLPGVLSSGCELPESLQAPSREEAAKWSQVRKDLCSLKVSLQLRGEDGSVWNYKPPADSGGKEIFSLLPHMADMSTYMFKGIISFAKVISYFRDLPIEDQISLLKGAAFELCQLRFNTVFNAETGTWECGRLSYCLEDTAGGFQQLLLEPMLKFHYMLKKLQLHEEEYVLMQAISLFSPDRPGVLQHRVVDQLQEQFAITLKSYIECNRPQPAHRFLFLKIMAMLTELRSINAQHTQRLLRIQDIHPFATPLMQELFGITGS

[4] = (§2) Inhibition of calcium channel (unknown origin); set-up: species or system Homo sapiens
Liver microsomes [5] = experiment: Metabolic stability in human liver microsomes assessed as compound remaining; format: ADME, Microsome
Liver = experiment: Metabolic stability in mouse liver microsomes assessed as compound remaining; format: ADME, Microsome
Liver microsomes [6] = experiment: Metabolic stability in rat liver microsomes assessed as compound remaining; format: ADME, Microsome
[7] = Metabolic stability in monkey liver microsomes assessed as compound remaining; format: ADME, Macaca mulatta, Microsome; conditions: rhesus monkey
[8] = Antagonist activity at human CCR1 assessed as inhibition of MIP1alpha-induced chemotaxis
[9] = biological target: Voltage-gated inwardly rectifying potassium channel KCNH2 (Homo sapiens, UniProt Q12809); experiment: Inhibition of human ERG by patch clamp assay
Homo sapiens [10] = species on record: Homo sapiens; experiment: as §1
Cytochrome P450 2C9 = Cytochrome P450 2C9 (Homo sapiens, UniProt P11712); experiment: Inhibition of CYP2C9 (unknown origin); format: ADME
[11] = biological target: T1, C-C chemokine receptor type 1; experiment: Antagonist activity at CCR1 in whole blood (unknown origin) assessed as inhibition of MIP1alpha-induced upregulation of beta2-integrin CD11b
Cytochrome P450 2D6 = Cytochrome P450 2D6 (Homo sapiens, UniProt P10635); experiment: Inhibition of CYP2D6 (unknown origin); format: ADME
Cytochrome P450 2C19 = Cytochrome P450 2C19 (Homo sapiens, UniProt P33261); experiment: Inhibition of CYP2C19 (unknown origin); format: ADME
hERG (KCNH2) = hERG (KCNH2) (Homo sapiens, UniProt Q12809); experiment: Inhibition of human ERG at 10 uM by patch clamp assay
Homo sapiens [12] = species on record: Homo sapiens; experiment: as §2
[13] = Fraction unbound in human serum; format: ADME, cell-free
Homo sapiens [14] = species on record: Homo sapiens; experiment: Inhibition of calcium channel (unknown origin) at 10 uM
[15] = Oral bioavailability in cynomolgus monkey at 2 mg/kg; format: ADME, organism-based, Macaca fascicularis; conditions: in vivo
Cytochrome P450 1A2 = biological target: T3, Cytochrome P450 1A2 (Homo sapiens, UniProt P05177); experiment: Inhibition of CYP1A2 (unknown origin); format: ADME
T3 sequence (P05177 whole entry): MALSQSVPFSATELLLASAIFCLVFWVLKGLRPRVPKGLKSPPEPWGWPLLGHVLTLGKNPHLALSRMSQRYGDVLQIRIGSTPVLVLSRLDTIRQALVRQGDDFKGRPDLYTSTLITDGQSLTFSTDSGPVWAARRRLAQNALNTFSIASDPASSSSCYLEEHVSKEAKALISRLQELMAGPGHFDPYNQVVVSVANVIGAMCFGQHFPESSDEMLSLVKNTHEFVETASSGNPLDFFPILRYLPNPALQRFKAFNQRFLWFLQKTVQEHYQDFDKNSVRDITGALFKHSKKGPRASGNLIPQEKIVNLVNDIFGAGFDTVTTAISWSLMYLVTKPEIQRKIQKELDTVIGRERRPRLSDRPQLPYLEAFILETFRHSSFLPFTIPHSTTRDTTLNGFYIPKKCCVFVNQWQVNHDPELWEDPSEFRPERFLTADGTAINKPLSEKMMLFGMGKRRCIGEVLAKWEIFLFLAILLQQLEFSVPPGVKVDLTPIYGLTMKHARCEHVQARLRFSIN

[16] = biological target: T1, C-C chemokine receptor type 1; experiment: Antagonist activity at CCR1 in whole blood (unknown origin) assessed as inhibition of LKN1-induced upregulation of beta2-integrin CD11b
[17] = Oral bioavailability in mouse at 9 mg/kg; format: ADME, organism-based; conditions: in vivo
Cytochrome P450 3A4 = Cytochrome P450 3A4 (Homo sapiens, UniProt P08684); experiment: Inhibition of CYP3A4 (unknown origin); format: ADME
Homo sapiens [18] = species on record: Homo sapiens; experiment: Inhibition of sodium channel (unknown origin) at 10 uM
[19] = biological target: T1, C-C chemokine receptor type 1; experiment: Antagonist activity at human CCR1 assessed as inhibition of MIP1alpha-induced chemotaxis

Sequence of Cytochrome P450 3A4 (P08684 whole entry): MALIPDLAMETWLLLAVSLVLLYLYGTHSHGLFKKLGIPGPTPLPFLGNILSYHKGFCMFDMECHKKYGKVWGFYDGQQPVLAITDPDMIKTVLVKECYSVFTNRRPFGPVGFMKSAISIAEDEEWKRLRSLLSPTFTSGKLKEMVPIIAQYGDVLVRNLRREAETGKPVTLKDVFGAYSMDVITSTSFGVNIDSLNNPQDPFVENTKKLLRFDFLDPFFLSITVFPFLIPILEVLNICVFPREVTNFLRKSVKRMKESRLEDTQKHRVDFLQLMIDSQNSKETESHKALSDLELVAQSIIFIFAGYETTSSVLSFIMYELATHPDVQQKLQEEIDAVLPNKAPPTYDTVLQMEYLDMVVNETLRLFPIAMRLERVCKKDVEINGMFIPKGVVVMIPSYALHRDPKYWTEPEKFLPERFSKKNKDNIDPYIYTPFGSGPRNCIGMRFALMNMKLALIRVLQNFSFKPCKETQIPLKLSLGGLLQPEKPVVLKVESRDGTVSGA
Sequence of Cytochrome P450 2D6 (P10635 whole entry): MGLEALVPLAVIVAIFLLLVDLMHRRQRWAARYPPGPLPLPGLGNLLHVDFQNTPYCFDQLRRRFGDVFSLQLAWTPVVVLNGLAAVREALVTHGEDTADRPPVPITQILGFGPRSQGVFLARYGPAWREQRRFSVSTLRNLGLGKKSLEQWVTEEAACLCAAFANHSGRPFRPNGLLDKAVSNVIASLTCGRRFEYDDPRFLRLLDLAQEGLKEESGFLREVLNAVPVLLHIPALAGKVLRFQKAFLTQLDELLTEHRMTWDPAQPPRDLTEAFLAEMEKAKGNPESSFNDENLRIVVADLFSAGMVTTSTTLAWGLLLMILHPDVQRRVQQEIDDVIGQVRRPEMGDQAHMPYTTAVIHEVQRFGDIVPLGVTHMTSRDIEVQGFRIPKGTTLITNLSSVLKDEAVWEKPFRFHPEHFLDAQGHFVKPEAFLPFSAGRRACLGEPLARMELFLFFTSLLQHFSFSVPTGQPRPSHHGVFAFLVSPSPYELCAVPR
Sequence of Voltage-gated inwardly rectifying potassium channel KCNH2 (Q12809 whole entry): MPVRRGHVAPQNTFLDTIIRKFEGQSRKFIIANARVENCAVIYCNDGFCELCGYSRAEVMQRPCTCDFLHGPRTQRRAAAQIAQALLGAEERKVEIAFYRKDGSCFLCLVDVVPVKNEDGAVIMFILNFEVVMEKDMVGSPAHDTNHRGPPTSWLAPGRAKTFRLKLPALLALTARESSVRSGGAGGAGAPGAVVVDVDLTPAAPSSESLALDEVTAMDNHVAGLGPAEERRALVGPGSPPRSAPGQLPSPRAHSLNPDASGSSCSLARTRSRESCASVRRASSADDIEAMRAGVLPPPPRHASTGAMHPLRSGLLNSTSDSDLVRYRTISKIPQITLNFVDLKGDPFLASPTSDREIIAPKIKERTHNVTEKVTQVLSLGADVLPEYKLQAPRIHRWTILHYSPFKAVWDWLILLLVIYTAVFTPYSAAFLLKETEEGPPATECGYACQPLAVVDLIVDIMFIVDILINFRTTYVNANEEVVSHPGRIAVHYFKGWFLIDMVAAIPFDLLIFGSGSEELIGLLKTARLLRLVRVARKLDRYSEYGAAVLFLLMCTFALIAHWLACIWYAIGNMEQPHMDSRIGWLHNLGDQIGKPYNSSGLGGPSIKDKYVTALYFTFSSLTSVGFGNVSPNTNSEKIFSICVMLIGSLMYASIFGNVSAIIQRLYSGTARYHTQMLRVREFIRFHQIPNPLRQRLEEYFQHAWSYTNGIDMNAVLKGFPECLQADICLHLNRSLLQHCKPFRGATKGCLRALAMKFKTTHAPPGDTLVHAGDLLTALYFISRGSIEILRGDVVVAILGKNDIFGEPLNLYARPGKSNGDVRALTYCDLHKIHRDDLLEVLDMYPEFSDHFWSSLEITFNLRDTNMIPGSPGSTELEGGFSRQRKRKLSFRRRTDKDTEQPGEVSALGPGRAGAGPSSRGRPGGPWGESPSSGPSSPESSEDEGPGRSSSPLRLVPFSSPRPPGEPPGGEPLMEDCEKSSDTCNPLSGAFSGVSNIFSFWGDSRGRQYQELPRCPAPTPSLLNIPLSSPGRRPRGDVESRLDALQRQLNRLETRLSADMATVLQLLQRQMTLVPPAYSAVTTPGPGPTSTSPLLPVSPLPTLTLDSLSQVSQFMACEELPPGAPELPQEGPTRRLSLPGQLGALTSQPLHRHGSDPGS
Sequence of hERG (KCNH2) (Q12809 whole entry): as above
Sequence of Cytochrome P450 2C19 (P33261 whole entry): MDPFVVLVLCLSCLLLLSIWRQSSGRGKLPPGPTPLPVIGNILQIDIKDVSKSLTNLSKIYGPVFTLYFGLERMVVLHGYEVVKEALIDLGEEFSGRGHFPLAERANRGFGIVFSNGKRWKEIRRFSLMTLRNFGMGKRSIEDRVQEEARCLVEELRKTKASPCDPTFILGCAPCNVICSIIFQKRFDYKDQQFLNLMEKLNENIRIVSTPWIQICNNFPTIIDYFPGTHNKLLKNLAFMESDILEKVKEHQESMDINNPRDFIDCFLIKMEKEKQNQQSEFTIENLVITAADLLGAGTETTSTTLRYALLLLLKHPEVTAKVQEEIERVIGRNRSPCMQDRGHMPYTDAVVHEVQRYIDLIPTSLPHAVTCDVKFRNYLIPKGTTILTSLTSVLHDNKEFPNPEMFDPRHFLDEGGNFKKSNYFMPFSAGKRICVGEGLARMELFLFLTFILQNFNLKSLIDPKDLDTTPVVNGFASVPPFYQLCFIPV
Sequence of Cytochrome P450 2C9 (P11712 whole entry): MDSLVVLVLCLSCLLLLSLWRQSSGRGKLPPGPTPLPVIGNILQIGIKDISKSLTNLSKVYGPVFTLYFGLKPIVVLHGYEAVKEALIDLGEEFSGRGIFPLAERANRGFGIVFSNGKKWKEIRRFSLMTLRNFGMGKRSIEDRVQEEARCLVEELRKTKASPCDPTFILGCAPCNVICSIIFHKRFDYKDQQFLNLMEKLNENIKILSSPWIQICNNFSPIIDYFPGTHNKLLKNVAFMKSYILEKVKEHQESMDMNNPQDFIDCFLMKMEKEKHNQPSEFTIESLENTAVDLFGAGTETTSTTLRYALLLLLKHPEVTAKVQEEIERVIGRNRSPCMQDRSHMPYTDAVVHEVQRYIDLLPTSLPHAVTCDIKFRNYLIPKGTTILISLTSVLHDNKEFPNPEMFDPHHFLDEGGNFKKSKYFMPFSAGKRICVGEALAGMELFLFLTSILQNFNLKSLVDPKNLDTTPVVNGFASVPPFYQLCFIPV

Row | IC50 [1] | IC50 [2] | EC50 [3] | IC50 [4] | Stability (Liver microsomes [5]) | Stability (Liver) | Stability (Liver microsomes [6]) | Stability [7] | SMILES | further results
1 | 0.0023 µM | > 80 µM | 1.4 µM | 61 µM | 33% | 49% | 20% | 1% | CC(C)[C@@H](NC(=O)[C@@H]1CCC[C@@H]1O)C(=O)N1CC[C@](O)(c2ccc(Cl)cc2)C(C)(C)C1 (relative stereo) | 
2 | 0.03 µM |  |  |  |  |  |  |  | CC(C)[C@@H](NC(=O)c1ccccc1)C(=O)N1CCC(c2ccc(Cl)cc2)CC1 | IC50 [8]: 0.078 µM
3 | 0.0008 µM |  |  |  | 98% | 88% | 87% | 66% | CC(C)[C@@H](NC(=O)[C@@H]1CC[C@@H](O)C1)C(=O)N1CC[C@](O)(c2ccc(Cl)cc2)C(C)(C)C1 (mixture of isomers) | INH [9]: > 80 µM; inhibition (Homo sapiens [10]): inactive; inhibition (INH) (Cytochrome P450 2C9): Not Active; IC50 [11]: 0.046 µM; inhibition (INH) (Cytochrome P450 2D6): Not Active; EC20 ([3]; human): 41 µM; EC60 ([3]; human): > 50 µM; inhibition (INH) (Cytochrome P450 2C19): Not Active; inhibition at 10 µM (hERG (KCNH2)): 3%; inhibition (Homo sapiens [12]): inactive; fraction unbound [13]: 0.16; inhibition (Homo sapiens [14]): 11%; bioavailability [15]: 54%; inhibition (INH) (Cytochrome P450 1A2): Not Active; IC50 [16]: 0.054 µM; bioavailability [17]: 100%; inhibition (INH) (Cytochrome P450 3A4): Not Active; inhibition (Homo sapiens [18]): 14%
4 | 2.24 µM |  |  |  |  |  |  |  | CC(C)[C@H](CN1CC[C@](O)(c2ccc(Cl)cc2)C(C)(C)C1)NC(=O)c1ccccc1 | IC50 [19]: Not Active
5 | 0.0022 µM | 39 µM | 8.5 µM | 21 µM | 94% | 92% | 93% | 93% | CC(C)[C@@H](NC(=O)[C@@H]1CCC[C@@H]1N)C(=O)N1CC[C@](O)(c2ccc(Cl)cc2)C(C)(C)C1 | 
